Source: patent publication US20020160968A1, “Inhibitors of cellular niacinamide mononucleotide formation and their use in cancer therapy” (Klinge Pharma GmbH, priority 1999, published 2002)
Like-named read-outs stand apart in the source and are kept apart here.

Tests used:
Assay type in all cases: cell-based, human
[1] = system: Hep G2 cells; experiment: Nicotinamide Reversibility Assay / cell growth inhibition of Hep G2 cells (SRB, six days); settings: for IC50: read-out: Cell growth inhibition IC50-values [μM] Hep G2; for Reversal by Niacinamide: Hep G2 cell growth inhibition with added nicotinamide
Method: Nicotinamide Reversibility Assay
Hep G2 cells derived from a human liver carcinoma were plated at a density of 20,000 cells/ml in 12-well plastic dishes. Cultivation occurred in Richters IMEM-ZO nutrient medium with 5% fetal calf serum (FCS) in a tissue culture incubator with a gas mixture of 5% CO2 and 95% air at a temperature of 37° C. One day after plating, the culture medium was aspirated from the cells and replaced by fresh medium which contained the respective concentrations of the test compounds and where applicable of the nicotinamide. For the individual concentrations and the controls without test compounds, three-fold batches were done for each. Three days after the beginning of treatment, the medium was again renewed with the test compounds and where applicable the nicotinamide. After six days of compound incubation, the test was ended and the protein amount in the individual wells was determined with the sulforhodamin-B-method (according. to P. Skehan et al.: New Colorimetric Cytotoxicity Assay for Anticancer-Drug Screening. J. Natl. Cancer Inst. 82: 1107-1112, 1990). The IC50-values were taken from the dose-response curves and given as a comparative measurement for the activity of the test compounds.

[2] = system: NAD(P) synthesis from niacinamide in HepG2 cells; experiment: Determination of NAD(P) synthesis from [14C]niacinamide in HepG2 cells
From the text: The effect of the compounds on the synthesis of NAD(P) starting from niacinamide was investigated using for example the tumor cell line HepG2 according to the technique described in the experimental part below.
The inhibition of the NAD(P) synthesis from niacinamide by these compounds was investigated in HepG2 cells as described in the section “Material and Methods”. The compounds of Table 3 a were used at a concentration of 10^−5 M. The compounds of Table 3 b were used at concentrations of at least 10^−5 M, except for Doxorubicin where the concentration was 0.3×10^−5 M. As a control, vehicle treated or untreated cells were used.
In these experiments, a pre-incubation period of 17 hrs with the compounds was used, but it turned out that the pre-incubations period could be shortened, for example to 2 hrs, or skipped completely without affecting the inhibition profile. […] Similar results were obtained with the other specific compounds.
For the detection of specific inhibitors of niacinamide mononucleotide formation the following screening assay is especially useful which comprises the following steps: incubating cultured cells selected from HepG2 cells, U-87 MG cells, MCF-7 M1 cells, Caki-1 cells, HL-60 cells, PC3 cells, U-373 MG cells, A549 cells and KG-1a cells in the presence of [^14C]niacinamide and a compound to be tested for its activity to inhibit the cellular formation of niacinamide mononucleotide; effecting lysis of the cells; isolating and separating the [^14C]-labeled compounds and measuring the amount of formed labeled niacinamide mononucleotide, NAD and NADP. More concretely, cultured cells are seeded in a defined density in culture dishes, followed by incubation in the presence of a test compound and by the addition of [^14C]niacinamide for about 0.1 to 6 hrs. The cells are then lysed with perchloric acid and the resulting extract is neutralized. Finally, the [^14C]-labeled compounds are separated by thin-layer chromatography on cellulose matrices followed by UV detection and autoradiography. Non-radioactive niacinamide derivatives are used as standards. This assay allows simple and effective screening and selection of the compounds according to the invention.
Determination of NAD(P) Synthesis from [^14C]Niacinamide
The cells were detached from 75 cm^2 flasks by removing the growth medium and adding 3 ml trypsin/EDTA solution to each flask. After about 5 minutes incubation at 37° C., when the cells were detached from the surface of the dishes, trypsinization was stopped by adding 3 ml Richter's IMEM-ZO medium containing 10% FCS. The cells were suspended by repeated pipetting. For predilution, an aliquot of 20 μl was added to 10 ml Casyton isotonic solution (No. 043-90037P, Schärfe System, Reutlingen, Germany) using a Sysmex Auto Dilutor Type AD-260 (Toa, Medical Electronics Co. Ltd., Kobe, Japan). The cell number was determined by electronic cell volume measurements and counting with a CASY 1 Cell Counter+Analyzer System, Model TTC (Schärfe System, Reutlingen, Germany) equipped with a 60 μm capillary. Following dilution in IMEM-ZO containing 10% FCS, the cells were finally seeded at a density of 4×10^6/10 ml per sample in Ø 10 cm tissue culture dishes (Greiner, Frickenhausen, Germany) and incubated at 37° C. in a humidified atmosphere of 5% CO2 in air.
After one day, when the cells were adherent to the dishes, the cultures were replenished with IMEM-ZO containing 5% FCS plus the test compound or the vehicle. […] The cells were then incubated at 37° C. for 17 hours in a humidified atmosphere of 5% CO2 in air. This preincubation period is not necessary to achieve a distinct inhibitory action of the compounds and can be shortened for example to 2 or 0 hours. After this period of time, the medium was again discarded and 4 ml HEPES-buffered IMEM-ZO containing the test compound or the vehicle and 0.5 μCi/ml [^14C]niacinamide were added to each culture for an additional 5 hours at 37° C. and 100% humidity. […]

[3] = system: HepG2 cells; experiment: Cell growth under high-density conditions (SRB assay), delayed cell death (DCD); settings: for minimal effective concentration: Homo sapiens; for minimal effective concentration / Tox. (effective (toxic) concentration) in DCD: high density HepG2 cultures; for Tox. (effective (toxic) concentration) in DCD: toxic compounds, rapid decrease in cell numbers
[4] = Homo sapiens, HepG2, 144 h, Hep G2, six days of compound incubation, SRB
[5] = Homo sapiens, 10 μM, read-out: Cellular NAD synthesis inhibition [%]
[6] = Homo sapiens, Table 3a, compound 10^-5 M, read-out: NAD(P) % of Control
[7] = Table 3a, compound 10^-5 M, 17 hrs pre-incubation, control 302.1
[8] = Table 3a, compound 10^-5 M, control 186.4
[9] = minimum concentration which, despite initial growth, induced cell death below the number of initially seeded cells, Table 2
[10] = Table 3b, at least 10^-5 M, control 374.00
[11] = Table 3b, toxic compounds at at least 10^-5 M, control 531

| Compound | IC50 [1, 4] | inhibition at 10 µM [2, 5] | activity at 10 µM [2, 6] | NAD(P) pmol/10^6 cells [2, 7] | NAD(P) pmol/mg protein [2, 8] | minimal effective concentration ([3]; Table 5) | minimal effective concentration [3, 9] | Influence of the addition of nicotinamide on the action on cell growth (FIGS. 20 to 27) ([1]; Hep G2) | Reversal by Niacinamide [1] | NAD(P) % of Control ([2]; Table 3b, at least 10^-5 M) | NAD(P) pmol/mg protein [2, 10] | NAD(P) pmol/10^6 cells [2, 11] | Tox. (effective (toxic) concentration) in DCD [3] | other results |
| --- | --- | --- | --- | --- | --- | --- | --- | --- | --- | --- | --- | --- | --- | --- |
| S=C(NCCCCCC1CCN(C(c2ccccc2)c2ccccc2)CC1)Nc1cccnc1 [Compound K22234, 1-[5-(1-benzhydryl-piperidine-4-yl)-pentyl]-3-pyridine-3-yl-thiourea] | 0.2 µM | 99% | 1.1% | 3.4 pmol/10^6 cells | 2.1 pmol/mg protein | 0.3 µM | 0.3 µM |  |  |  |  |  |  |  |
| COc1cccc2c1C(=O)c1c(O)c3c(c(O)c1C2=O)C[C@@](O)(C(=O)CO)C[C@@H]3O[C@H]1C[C@H](N)[C@H](O)[C@H](C)O1 [Doxorubicin, reference compound] | 0.02 µM |  |  |  |  |  |  | no measurable influence | no |  |  |  |  | inhibition at 3 µM ([2]; Homo sapiens, 3 μM, read-out: Cellular NAD synthesis inhibition [%]): 0%; activity at 3 µM ([2]; Homo sapiens, Table 3b, 0.3×10^-5 M, read-out: NAD(P) % of Control): 102% |
| O=C(NCCCCCCNC(=O)N1CCN(C(c2ccccc2)c2ccccc2)CC1)NCc1cccnc1 [Compound K22132, 4-benzhydryl-piperazine-1-carboxylic acid-[6-(3-pyridine-3-yl-methylureido)-hexyl]-amide] | 0.02 µM | 99% | 1.4% | 4.1 pmol/10^6 cells | 2.5 pmol/mg protein | 0.03 µM | 0.1 µM |  |  |  |  |  |  |  |
| O=C(NCCCCC1CCN(C(c2ccccc2)c2ccccc2)CC1)NCCc1cccnc1 [Compound K22339, 1-[4-(1-benzhydryl-piperidine-4-yl)-butyl]-3-(2-pyridine-3-ylethyl)-urea] | 0.1 µM |  | 0.8% | 2.5 pmol/10^6 cells | 1.6 pmol/mg protein | 0.1 µM | 0.3 µM | can be antagonized | yes |  |  |  |  | inhibition at 1 µM ([2]; Homo sapiens, 1 μM, read-out: Cellular NAD synthesis inhibition [%]): 99%; Day on which cell death occurred ([3]; concentrations of at least 0.3 μM, high density HepG2 culture): 4 days |
| NC(=O)c1c[se]c([C@@H]2O[C@H](CO)[C@@H](O)[C@H]2O)n1 [Selenazofurin, reference compound] |  |  |  |  |  |  |  | no measurable influence | no | 70.2% | 372.29 pmol/mg protein | 372.29 pmol/10^6 cells | Tox. 30 μM | IC50 ([1]; Hep G2, six days of compound incubation, SRB): 0.7 µM; Cellular NAD synthesis inhibition [%] ([2]; 10 μM): 30 (10 μM) % |
| NC(=O)c1csc([C@@H]2O[C@H](CO)[C@@H](O)[C@H]2O)n1 [Tiazofurin, reference compound] |  |  |  |  |  |  |  | no measurable influence | no | 78.1% | 292.30 pmol/mg protein | 414.47 pmol/10^6 cells | Tox. 300 μM | IC50 ([1]; Homo sapiens, HepG2, 144 h): 10 µM; inhibition at 100 µM ([2]; Homo sapiens, 100 μM, read-out: Cellular NAD synthesis inhibition [%]): 22% |
| O=C(CCCCCN1CCN(C(c2ccccc2)c2ccccc2)CC1)NCCc1cccnc1 [Compound K22265, 6-(4-benzhydryl-piperazine-1-yl)-hexanoic acid-(2-pyridine-3-yl-ethyl)-amide] | 2 µM | 98% | 2.4% | 7.3 pmol/10^6 cells | 4.5 pmol/mg protein | 3 µM | 3 µM |  |  |  |  |  |  |  |
| [N-]=[N+]=CC(=O)OC[C@H](N)C(=O)O [Azaserine, reference compound] | 0.7 µM | 0% |  |  |  |  |  | no measurable influence | no | 100.0% | 374.23 pmol/mg protein | 530.64 pmol/10^6 cells |  |  |
| NC(=O)c1ccc(N)nc1 [6-Aminonicotinamide, reference compound] |  |  |  |  |  |  |  |  | yes | 88.0% | 329.34 pmol/mg protein | 466.98 pmol/10^6 cells | Tox. 10000 μM | IC50 ([1]; Homo sapiens, HepG2, 144 h): 4 µM; inhibition at 30 µM ([2]; Homo sapiens, 30 μM, read-out: Cellular NAD synthesis inhibition [%]): 12% |
| O=C(NCCCCC1CCN(C(c2ccccc2)c2ccccc2)CC1)Nc1cccnc1 [Compound K22130, 1-[4-(1-benzhydryl-piperidine-4-yl)-butyl]-3-pyridine-3-yl-urea] | 0.08 µM |  |  |  |  | 1 µM | 1 µM |  |  |  |  |  |  |  |
